Patent US5997843A, “Radiometal complexes that localise in hypoxic tissue” (priority 1993, dated 1999)
“Also recorded” adds a separate entry of the source. Where two headings read alike, the source gives them in different places.

Tests used:
Biodistribution in rats = assay type: in vivo, male rats; conditions: i.v.
Protocol: Biodistribution in Rats--Methods
The quantitative biodistribution was studied in male rats at 2 minutes, 1 hour and 4 hours post-injection
Rats under light anaesthesia were injected intravenously with 0.1 ml of test agent. Three rats were sacrificed (anaesthesia followed by exsanguination) at 2, 60 and 240 minutes, post-injection. The percentage of the injected dose in the excreta and organs and tissues was determined by dissection and assay for radioactivity in an automatic gamma counter.

[1] = system: isolated (Langendorff) rat hearts; experiment: Isolated perfused heart (Langendorff), hypoxic vs oxic uptake/retention; conditions: for Hypoxic/Oxic Ratio (H/O): ^99m Tc complex (or ^123 I-IAZA), 20 min infusion, 15 min washout; for Normalised Hypoxic Retention: relative to ^3 H-misonidazole activity; for normalised hypoxic retention, times greater than ^3 H misonidazole: isolated buffer perfused rat heart model
Protocol: A 15-minute cold buffer washout period follows. y activity in the heart is monitored using a collimated NaI probe detector positioned over the heart.
Activity in hearts, relative to perfusate activity, is calculated for each nuclide and data evaluated for each compound for activity in hypoxic and oxic hearts (hypoxic:oxic ratio) and also relative to the 3 H-misonidazole activity (normalised retention) using Formula 1. [formula] Results

xanthine oxidase [2] = experiment: Xanthine oxidase (XOD) with hypoxanthine in PBS reduction test; assay type: biochemical; conditions: ^99m Tc complex, HPLC
Protocol: b) Xanthine Oxidase (XOD) with Hypoxanthine in Phosphate Buffered Saline (PBS)
Xanthine oxidase (16 mg) was weighed into a P6 vial. the vial was capped, oversealed and purged with nitrogen gas. Nitrogen purged phosphate buffered saline (1 ml) was added to the vial containing the xanthine oxidase.
Hypoxanthine (4.1 mg) was weighed into a P6 vial. The vial was capped, oversealed and purged with nitrogen gas. To the hypoxanthine was added (1 ml) of the xanthine oxidase in PBS.
1 ml of the ligand solution or 1 ml of the ^99m Tc-complex preparation was then added to the reducing mixture, shaken, and aliquots were taken at 20 minute time intervals.

[3] = rat, cited from earlier work
xanthine oxidase [4] = conditions: ^99 Tc complex; cited from earlier work
[5] = 2 min post-injection, ^99m Tc complex
[6] = 240 min post-injection (third printed value)
[7] = second of two values, 60 or 240 min not assignable

Structure (SMILES) | Bladder/Urine (Biodistribution in rats; 2 min post-injection) [percent injected dose] | Blood (Biodistribution in rats; 2 min post-injection) [percent injected dose] | Gut (Biodistribution in rats; 2 min post-injection) [percent injected dose] | Kidney (Biodistribution in rats; 2 min post-injection) [percent injected dose] | Liver (Biodistribution in rats; 2 min post-injection) [percent injected dose] | Muscle (Biodistribution in rats; [5]) [percent injected dose] | Gut (Biodistribution in rats; 60 min post-injection) [percent injected dose] | Muscle (Biodistribution in rats; 60 min post-injection) [percent injected dose] | Muscle (Biodistribution in rats; [6]) [percent injected dose] | Gut (Biodistribution in rats; 240 min post-injection) [percent injected dose] | Blood (Biodistribution in rats; [7]) [percent injected dose] | Kidney (Biodistribution in rats; [7]) [percent injected dose] | Liver (Biodistribution in rats; [7]) [percent injected dose] | hypoxia selectivity / hypoxic/oxic ratio / hypoxic retention (in words) [1] | Hypoxic/Oxic Ratio (H/O) [1] | Normalised Hypoxic Retention [1] | Xanthine oxidase reduction test result (xanthine oxidase [2]) | normalised hypoxic retention, times greater than ^3 H misonidazole [1] | further results
CC(=NO)C(C)(C)NCCCCCNC(C)(C)C(Cn1ccnc1[N+](=O)[O-])=NO [Compound IV, 3,3,11,11-tetramethyl-1-(2-nitro-1H-imidazo-1-yl)-4,10-diazatridecan-2,12-dione dioxime] | 0.4 | 10.6 | 13.7 | 12.1 | 15.6 | 24.3 | 50.9 | 8.2 | 2.0 | 60.0 | 1.0 | 2.7 | 2.5 | very little hypoxia selectivity | 2.4 | 0.49 | positive |  | 
CC(=NO)C(C)(C)NCCCCNC(C)(C)C(Cn1ccnc1[N+](=O)[O-])=NO [Compound II] | 1.0 | 8.4 | 13.4 | 13.1 | 15.5 | 26.1 | 40.0 | 6.6 | 3.1 | 49.9 | 1.3 | 1.4 | 11.4 | significantly greater than seen for other ^99m Tc test agents and ^123 I-IAZA; also recorded: greater than that for ^99m Tc-PnAO; also recorded: at least equivalent to ^123 I-IAZA | 28 | 5.1 | positive | at least 2 times | 
CC(=NO)C(C)(C)NCCCCNC(C)(C)C(C)=NO [Compound I, 4,9-diaza-3,3,10,10-tetramethyldodecan-2,11',-dione dioxime] | 0.6 | 9.7 | 11.2 | 7.5 | 10.6 | 35.2 | 22.3 | 12.5 | 3.5 | 24.4 | 2.4 | 5.6 | 9.1 | significantly greater than seen for other ^99m Tc test agents and ^123 I-IAZA; also recorded: greater than that for ^99m Tc-PnAO; also recorded: at least equivalent to ^123 I-IAZA; also recorded: significantly greater hypoxic cell selectivity than the corresponding nitroimidazole conjugate | 54 | 2.2 | positive | at least 2 times | brain uptake ([3]; 30 sec pi, ^99m Tc complex): 0.12 % injected dose
CC(=NO)C(C)(C)NCCCNC(C)(C)C(C)=NO [Compound X, reference compound] | 0.1 | 5.0 | 11.7 | 1.8 | 27.9 | 34.9 | 51.5 | 7.9 | 2.6 | 53.4 | 6.8 | 2.1 | 13.1 |  | 5.1 | 0.50 | positive |  | brain uptake ([3]; in vivo, 0.5 min): 1.3 % injected dose; reduction by xanthine oxidase (xanthine oxidase [4]): not reduced; Xanthine oxidase reduction test result (xanthine oxidase [2]; listed as PnAO): reduced by xanthine oxidase
CC(=NO)C(C)(C)NCCCNC(C)(C)C(Cn1ccnc1[N+](=O)[O-])=NO [Compound V, 3,3,9,9-Tetramethyl-1-(2-nitro-1H-imidazo-1-yl)-4,8-diazaundecane-2,10-dione dioxime, reference compound] | 0.3 | 7.2 | 11.1 | 4.1 | 25.1 | 29.6 | 45.9 | 4.2 | 2.4 | 59.3 | 4.2 | 3.2 | 21.5 |  | 10 | 8.4 | positive |  | 
